One series concerns Hela cells. Put plainly: Transfection of FAM-labeled polyA/G, fluorescence intensity by flow cytometry. The class given is cell-based. The settings on record: liposomes mixed with FAM-polyA at base ratio 5/1, 100 nM FAM-polyA, 4 hours, Hela cells (Fig. 7). The text has this: Taking DNTA and DNCA as examples, FAM-labeled polyA/G was used as a template to study the nucleic acid transfection abilities of thymine base acetamide glycerin ethers. The specific coating and transfection process is as follows: DNTA or DNCA liposomes were formulated as mixed solutions with FAM-polyA or FAM-polyG at a base ratios of 5/1. […] The DNA-free and DNA-only wells were used as two negative controls, and the transfection reagent Lipofectamine 2000-DNA complex (the method of addition of transfection reagent and DNA group according to the protocol) was added as a positive control; • (3) Washing three times with 500 µL PBS; • (4) After 4 hours, the liquids in the culture wells were aspirated, after adding 250 µL of 5% trypsin each, they were placed in 1.5 mL EP tubes, the cells were fixed with 4% paraformaldehyde for 15 min; • (5) Centrifuging, discarding the supernatant, adding 400 µL PBS in each tube; • (6) Fluorescence intensity was measured by using flow cytometry;

The nature of series [1]: Cytotoxicity using CCK-8 kit. The class given is cell-based. The settings on record: for viability at 72 h, 60 µM: 72 hours after addition, concentration of 60 µM, read-out: cell survival rate; for cytotoxicity: CCK-8 kit (Fig. 6). On the procedure: When base acetamide glycerin ether molecules should is to be used as novel biomaterials in the field of gene therapy, they must have good biocompatibility. Two base acetamide glycerin ether compounds (DOCA and DOTA) were studied for cytotoxicity using CCK-8 kit. […] After 72 hours of addition of the base acetamide glycerin ether compound at a concentration of 60 µM, the cell survival rate was close to 100%, indicating good biocompatibility (Fig. 6).

The nature of series [2]: Particle size and morphology of liposomes by electron microscopy. The class given is physicochemical. The settings on record: liposome/nanoparticles self-assembled in water, electron microscopy (Fig. 5). As to the method: The base-acetamide glycerin ether molecule has an amphiphilic structure and can be prepared into a supramolecular structure such as a liposome. Taking DNTA as an example, the preparation method of liposome is as follows: DNTA (1.18 mg, 1.56 µmol) is dissolved in methanol (1 mL), vortexed to fully dissolve, after centrifugation, DNTA methanol solution (12.8 µL) is measured out and adding to a 200 µL centrifuge tube, added with PBS (100 µL), vortexed (10 s) to mix well. The solution was placed in a PCR program for annealing. Procedure: Heating at 95°C for 10 minutes, cool down 5°C every 5 minutes until 15°C, then store at 4°C. After annealing was completed, the centrifuge tube was incubated at 40°C for 30 min for the complete evaporation of methanol to obtain the liposome solution.
Under transmission electron microscope (TEM), it can be seen that the neutral base lipid carrier molecules DNCA and DNTA can form stable and uniform nanoparticles in aqueous solution. The size of the DNTA molecules assembled in water is around 150 nm. The size of the liposome formed by self-assembly of DNCA carrier molecules in water is around 180 nm (Fig. 5).

For another series, the system named is MCF-7 cells. Put plainly: Antisense nucleic acid (Cenersen) uptake. The class given is cell-based. The settings on record: liposomes, compared with blank group and DOCA/DOTA liposome groups (Fig. 8). On the procedure:
The cells used in the transfection experiments were Hela cells. • (1) Plating: 300,000 cells were added to the six-well plate, and the volume per well was 1.8 mL; • (2) After 18-24 h, the samples were diluted in an appropriate amount of opti-MEM, blowing and suction with a pipette to mix well, 20 µL of the mixed […] The DNA-free and DNA-only wells were used as two negative controls, and the transfection reagent Lipofectamine 2000-DNA complex (the method of addition of transfection reagent and DNA group according to the protocol) was added as a positive control; • (3) Washing three times with 500 µL PBS; • (4) After 4 hours, the liquids in the culture wells were aspirated, after adding 250 µL of 5% trypsin each, they were placed in 1.5 mL EP tubes, the cells were fixed with 4% paraformaldehyde for 15 min; • (5) Centrifuging, discarding the supernatant, adding 400 µL PBS in each tube; • (6) Fluorescence intensity was measured by using flow cytometry;
The procedure was the same as the transfection experiments of DNCA- and DNTA-packed PolyG/PolyA (using DOCA and DOTA as controls), the cell line was selected from MCF-7 cell line.

The values below come from EP3539964A1, “BASE ACETAMIDE GLYCERIN ETHER MOLECULE, CHEMICAL SYNTHESIS METHOD THEREFOR, AND APPLICATIONS THEREOF IN FIELD OF GENE THERAPY” (Peking University, priority 2016, dated 2018).

On to `CCCCCCCC/C=C\CCCCCCCCOCC(CNC(=O)Cn1ccc(N)nc1=O)OCCCCCCCC/C=C\CCCCCCCC` (stereo not shown) [DNCA, 1,2,-bis(oleyl)-glycero-3-amine-(cytosin-1-yl)-acetyl ester], for which, in the series with Hela cells, the “transfection of FAM-polyA into cells” value was “can successfully transport FAM-polyA into cells”. Besides, in series [1], the viability at 72 h, 60 µM is approximately 100% and the cytotoxicity result is “no obvious cytotoxicity”. For the same compound, the size entry in series [2] is reported as “around 180 nm”. Further, in the series on MCF-7 cells, the “uptake of antisense nucleic acid” value was “could significantly increase the uptake ability of MCF-7 cells”.
Taken in the same sequence, the figures for `CCCCCCCC/C=C\CCCCCCCCOCC(CNC(=O)Cn1cc(C)c(=O)[nH]c1=O)OCCCCCCCC/C=C\CCCCCCCC` (stereo not shown) [DNTA, 1,2,-bis(oleyl)-glycero-3-amine-(thymidine-1-yl)-acetyl ester] were “can successfully transport FAM-polyA into cells”, approximately 100%, “no obvious cytotoxicity”, “around 150 nm” and “could significantly increase the uptake ability of MCF-7 cells”.
